Test results as given in patent US9498463B2, “Compound obtained from gamboge resin, and medical uses of the same” (priority 2010, dated 2016).
≈ marks a conversion by molar mass, not a printed value. Where two headings read alike, the source gives them in different places.

Experiments:
[1] = test system: Human umbilical venal epithelial cell (HUVEC); test: in vitro; settings: HUVEC; for LC50 (50% lethal concentration): normal human cell line; for IC50: Homo sapiens, read-out: IC50 (50% inhibition concentration), HUVEC, normal human cell line
Description: (§1) In Vitro Anti-Cancer Test
(§2) The in vitro anti-cancer test was primarily used to detect the effect of a candidate drug on cancer cell proliferation. The working principle involved therein is the ability of viable cells to shift alamarBlue (AbD Serotec, UK) from its originally non-fluorescent oxidized state (non-fluorescent, blue) to a reduced form (fluorescent, red) having fluorescence via metabolic reaction. According to the fluorescent data result generated by the alamarBlue reagent thus obtained, the proliferation of the viable cells and cell activity can be quantified for detection.
(§3) In the in vitro anti-cancer tests, a candidate drug was tested at 5 different concentrations of 0.01, 0.1, 1, 10, and 100 μg/ml, and six human cancer cell lines and a normal human cell line were used (see Table 5).

[2] = test system: Human breast adenocarcinoma cell MCF7; test: cells
Description: as §1, §2, §3

[3] = test system: Human colon adenocarcinoma cell HT-29; test: cells; settings: HT-29, read-out: IC50 (50% inhibition concentration), HT-29
Description: as §1, §2, §3

[4] = test system: Human hepatocellular carcinoma cell HepG2; test: cells; settings: HepG2, read-out: IC50 (50% inhibition concentration), HepG2
Description: as §1, §2, §3

[5] = test system: Human histocytic lymphoma cell U937; test: cells; settings: U-937, read-out: IC50 (50% inhibition concentration), U937
Description: as §1, §2, §3

[6] = test system: Human lung carcinoma cell A549; test: cells
Description: as §1, §2, §3

[7] = test system: Human promyelocytic leukemia cell HL-60; test: cells; settings: HL-60, read-out: IC50 (50% inhibition concentration), HL-60
Description: as §1, §2, §3

in vitro = test: in vitro
Description: as §1, §2, §3

[8] = Homo sapiens, MCF7, read-out: IC50 (50% inhibition concentration), MCF-7
[9] = A549, read-out: IC50 (50% inhibition concentration), A549

With `C=C(C)C1CC[C@@]2(C)Oc3c(CC=C(C)C)c4c(c(O)c3[C@@H]1C2O)C(=O)C1=C[C@@H]2CC3C(C)(C)OC(C/C=C(/C)C(=O)O)(C2=O)[C@@]13O4` (stereo in doubt) [Gh-1050, 2-butenoic acid, 2-methyl-4-[(1R,3aS,5S,9R,10S,13R,16aS,17S)-3a,4,5,7,10,11,12,13-octahydro-8,17-dihydroxy-3,3,13-trimethyl-15-(3-methyl-2-butenyl)-10-(1-methylethenyl)-7,18-dioxo-1,5:9,13-dimethano-1H,3H,9H-furo[3.4-g]oxocino[3.2-b]xanthen-1-yl]-,(2Z)-] the “LC50 (50% lethal concentration)” value [1] was 3.4 µg/mL (≈ 5.27 µM).
In the case of `CC(C)=CCC[C@@]1(C)Oc2c(c(O)c3c(c2CC=C(C)C)O[C@]24C(=C[C@@H]5CC2C(C)(C)OC4(C/C=C(/C)C(=O)O)C5=O)C3=O)C[C@H]1O` (stereo in doubt) [Gh-1631, 2-butenoic acid, 2-methyl-4-[(1R,3aS,5S,10R,11R,14aS)-3a,4,5,7,10,11-hexahydro-8,10-dihydroxy-3,3,11-trimethyl-13-(3-methyl-2-butenyl)-11-(4-methyl-3-pentenyl)-7,15-dioxo-1,5-methano-1H,3H,9H-furo[3.4-g]pyrano[3.2-b]xanthen-1-yl]-,(2Z)-], the IC50 [2, 8] is reported as 0.14 µg/mL, the IC50 [3] is reported as 6.1 µg/mL (≈ 9.43 µM) and the IC50 [4] is reported as 0.85 µg/mL (≈ 1.31 µM). The IC50 [5] was 0.18 µg/mL (≈ 0.278 µM), the IC50 [6, 9] was 0.14 µg/mL (≈ 0.216 µM) and the IC50 [7] was 0.19 µg/mL (≈ 0.294 µM). For the same molecule, the IC50 [1] was 0.58 µg/mL (≈ 0.897 µM).
For `CC(C)=CCc1c2c(c(O)c3c1O[C@]14C(=C[C@@H]5CC1C(C)(C)OC4(C/C=C(\C)C(=O)O)C5=O)C3=O)C=CC(C)(C/C=C\C(C)(C)O)O2` (stereo in doubt) [Gh-3332, 2-butenoic acid, 2-methyl-4-[(1R,3aS,5S,14aS)-3a,4,5,7-tetrahydro-8-hydroxy-3,3,11-trimethyl-13-(3-methyl-2-butenyl)-11-(4-hydroxy-4-methyl-2Z-pentenyl)-7,15-dioxo-1,5-methano-1H,3H,11H-furo[3.4-g]pyrano[3.2-b]xanthen-1-yl]-,(2E)-], the “LC50 (50% lethal concentration)” value [1] was 3.3 µg/mL (≈ 5.12 µM).
Molecule `CC(C)=CCC[C@@]1(C)C=Cc2c(O)c3c(c(CC(O)C(C)(C)O)c2O1)O[C@]12C(=C[C@@H]4CC1C(C)(C)OC2(C/C=C(/C)C(=O)O)C4=O)C3=O` (stereo partly drawn) [Gh-1036, 2-butenoic acid, 2-methyl-4-[(1R,3aS,5S,11S,14aS)-3a,4,5,7-tetrahydro-8-hydroxy-3,3,11-trimethyl-13-(2,3-dihydroxy-3-methylbutyl)-11-(4-methyl-3-pentenyl)-7,15-dioxo-1,5-methano-1H,3H,11H-furo[3.4-g]pyrano[3.2-b]xanthen-1-yl]-,(2Z)-] has an IC50 [2, 8] of 0.35 µg/mL, an IC50 [3] of 1.4 µg/mL (≈ 2.11 µM) and an IC50 [4] of 0.88 µg/mL (≈ 1.33 µM). It also gave an IC50 [5] of 0.29 µg/mL (≈ 0.438 µM), an IC50 [6, 9] of 0.22 µg/mL (≈ 0.332 µM) and an IC50 [7] of 0.45 µg/mL (≈ 0.679 µM). The IC50 [1] was 0.46 µg/mL (≈ 0.694 µM).
`CC(C)=CCC[C@]1(C)C=Cc2c(O)c3c(c(CC(O)C(C)(C)O)c2O1)O[C@]12C(=C[C@@H]4CC1C(C)(C)OC2(C/C=C(/C)C(=O)O)C4=O)C3=O` (stereo partly drawn) [Gh-1052, 2-butenoic acid, 2-methyl-4-[(1R,3aS,5S,11R,14aS)-3a,4,5,7-tetrahydro-8-hydroxy-3,3,11-trimethyl-13-(2,3-dihydroxy-3-methylbutyl)-11-(4-methyl-3-pentenyl)-7,15-dioxo-1,5-methano-1H,3H,11H-furo[3.4-g]pyrano[3.2-b]xanthen-1-yl]-,(2Z)-] gave an IC50 [2, 8] of 0.52 µg/mL, an IC50 [3] of 1.6 µg/mL (≈ 2.41 µM) and an IC50 [4] of 1.2 µg/mL (≈ 1.81 µM). The IC50 [5] was 0.22 µg/mL (≈ 0.332 µM), the IC50 [6, 9] was 0.46 µg/mL (≈ 0.694 µM) and the IC50 [7] was 0.23 µg/mL (≈ 0.347 µM). For the same molecule, the IC50 [1] was 0.47 µg/mL (≈ 0.709 µM).
In the case of `C=C(C)C1CC[C@]2(C)C[C@H]1c1c(O)c3c(c(CC=C(C)C)c1O2)O[C@]12C(=C[C@@H]4CC1C(C)(C)OC2(C/C=C(/C)C(=O)O)C4=O)C3=O` (stereo partly shown) [Gh-2603-2, gambogellic acid], the CC50 (in vitro) is reported as 1.7 µg/mL (≈ 2.7 µM) and the IC50 ([6]; A549, read-out: IC50 (50% inhibition concentration)) is reported as 0.2 µg/mL (≈ 0.318 µM).
Work on `CC(C)=CCc1c2c(c(O)c3c1O[C@]14C(=C[C@@H]5CC1C(C)(C)OC4(C/C=C(/C)C(=O)O)C5=O)C3=O)C=C[C@@](C)(CCC(O)C(C)(C)O)O2` (stereo partly drawn) [Gh-3261, 2-butenoic acid, 2-methyl-4-[(1R,3aS,5S,11R,14aS)-3a,4,5,7-tetrahydro-8-hydroxy-3,3,11-trimethyl-13-(3-methyl-2-butenyl)-11-(3,4-dihydroxy-4-methylpentyl)-7,15-dioxo-1,5-methano-1H,3H,11H-furo[3.4-g]pyrano[3.2-b]xanthen-1-yl]-,(2Z)-] yielded an IC50 [2, 8] of 0.36 µg/mL, an IC50 [3] of 1.1 µg/mL (≈ 1.66 µM) and an IC50 [4] of 1 µg/mL (≈ 1.51 µM). For the same molecule, the IC50 [5] was 0.11 µg/mL (≈ 0.166 µM), the IC50 [6, 9] was 0.19 µg/mL (≈ 0.287 µM) and the IC50 [7] was 1.9 µg/mL (≈ 2.87 µM). The IC50 [1] was 0.29 µg/mL (≈ 0.438 µM).
For `CC(C)=CCc1c2c(c(O)c3c1O[C@]14C(=C[C@@H]5CC1C(C)(C)OC4(C/C=C(/C)C(=O)O)C5=O)C3=O)C=C[C@](C)(CCC(O)C(C)(C)O)O2` (stereo partly drawn) [Gh-3271, 2-butenoic acid, 2-methyl-4-[(1R,3aS,5S,11S,14aS)-3a,4,5,7-tetrahydro-8-hydroxy-3,3,11-trimethyl-13-(3-methyl-2-butenyl)-11-(3,4-dihydroxy-4-methylpentyl)-7,15-dioxo-1,5-methano-1H,3H,11H-furo[3.4-g]pyrano[3.2-b]xanthen-1-yl]-,(2Z)-], the IC50 [2, 8] was 0.16 µg/mL, the IC50 [3] was 1.8 µg/mL (≈ 2.72 µM) and the IC50 [4] was 0.46 µg/mL (≈ 0.694 µM). It also gave an IC50 [5] of 0.11 µg/mL (≈ 0.166 µM), an IC50 [6, 9] of 0.25 µg/mL (≈ 0.377 µM) and an IC50 [7] of 3 µg/mL (≈ 4.53 µM). For the same molecule, the IC50 [1] was 0.42 µg/mL (≈ 0.634 µM).
With `CC(C)=CCc1c2c(c(O)c3c1O[C@]14C(=C[C@@H]5CC1C(C)(C)OC4(C/C=C(/C)C(=O)O)C5=O)C3=O)C=C[C@@](C)(C/C=C/C(C)(C)O)O2` [Gh-3272, 2-butenoic acid, 2-methyl-4-[(1R,3aS,5S,11R,14aS)-3a,4,5,7-tetrahydro-8-hydroxy-3,3,11-trimethyl-13-(3-methyl-2-butenyl)-11-(4-hydroxy-4-methyl-2E-pentenyl)-7,15-dioxo-1,5-methano-1H,3H,11H-furo[3.4-g]pyrano[3.2-b]xanthen-1-yl]-,(2Z)-] the “LC50 (50% lethal concentration)” value [1] was 2.5 µg/mL (≈ 3.88 µM).
In the case of `C=C(C)C(O)CC[C@]1(C)C=Cc2c(O)c3c(c(CC=C(C)C)c2O1)O[C@]12C(=C[C@@H]4CC1C(C)(C)OC2(C/C=C(/C)C(=O)O)C4=O)C3=O` (stereo partly drawn) [Gh-3291, 2-butenoic acid, 2-methyl-4-[(1R,3aS,5S,11R,14aS)-3a,4,5,7-tetrahydro-8-hydroxy-3,3,11-trimethyl-13-(3-methyl-2-butenyl)-11-(3-hydroxy-4-methyl-4-pentenyl)-7,15-dioxo-1,5-methano-1H,3H,11H-furo[3.4-g]pyrano[3.2-b]xanthen-1-yl]-,(2Z)-], the “LC50 (50% lethal concentration)” value [1] is reported as 1.4 µg/mL (≈ 2.17 µM).
With `CC(C)=CCC[C@@]1(C)C=Cc2c(O)c3c(c(C(O)C4OC4(C)C)c2O1)O[C@]12C(=C[C@@H]4CC1C(C)(C)OC2(C/C=C(/C)C(=O)O)C4=O)C3=O` (stereo partly drawn) [Gh-3311, 2-butenoic acid, 2-methyl-4-[(1R,3aS,5S,11S,14aS)-3a,4,5,7-tetrahydro-8-hydroxy-3,3,11-trimethyl-13-(1-hydroxy-2,3-epoxy-3-methylbutyl)-11-(4-methyl-3-pentenyl)-7,15-dioxo-1,5-methano-1H,3H,11H-furo[3.4-g]pyrano[3.2-b]xanthen-1-yl]-,(2Z)-] the “LC50 (50% lethal concentration)” value [1] was 13.9 µg/mL (≈ 21 µM).
For `CC(C)=CCC[C@@]1(C)C=Cc2c(O)c3c(c(CC4OC4(C)C)c2O1)O[C@]12C(=C[C@@H]4CC1C(C)(C)OC2(C/C=C(/C)C(=O)O)C4=O)C3=O` (stereo partly drawn) [Gh-3351, 2-butenoic acid, 2-methyl-4-[(1R,3aS,5S,11S,14aS)-3a,4,5,7-tetrahydro-8-hydroxy-3,3,11-trimethyl-13-(2,3-epoxy-3-methylbutyl)-11-(4-methyl-3-pentenyl)-7,15-dioxo-1,5-methano-1H,3H,11H-furo[3.4-g]pyrano[3.2-b]xanthen-1-yl]-,(2Z)-], the “LC50 (50% lethal concentration)” value [1] was 3.3 µg/mL (≈ 5.12 µM).
For `CC(C)=CCC[C@]1(C)C=Cc2c(O)c3c(c(CC4OC4(C)C)c2O1)O[C@]12C(=C[C@@H]4CC1C(C)(C)OC2(C/C=C(/C)C(=O)O)C4=O)C3=O` (stereo partly drawn) [Gh-3352, 2-butenoic acid, 2-methyl-4-[(1R,3aS,5S,11R,14aS)-3a,4,5,7-tetrahydro-8-hydroxy-3,3,11-trimethyl-13-(2,3-epoxy-3-methylbutyl)-11-(4-methyl-3-pentenyl)-7,15-dioxo-1,5-methano-1H,3H,11H-furo[3.4-g]pyrano[3.2-b]xanthen-1-yl]-,(2Z)-], the “LC50 (50% lethal concentration)” value [1] was 0.85 µg/mL (≈ 1.32 µM).
For `CC(C)=CCC[C@]1(C)C=Cc2c(O)c3c(c(C(O)C4OC4(C)C)c2O1)O[C@]12C(=C[C@@H]4CC1C(C)(C)OC2(C/C=C(/C)C(=O)O)C4=O)C3=O` (stereo partly drawn) [Gh-3353, 2-butenoic acid, 2-methyl-4-[(1R,3aS,5S,11R,14aS)-3a,4,5,7-tetrahydro-8-hydroxy-3,3,11-trimethyl-13-(1-hydroxy-2,3-epoxy-3-methylbutyl)-11-(4-methyl-3-pentenyl)-7,15-dioxo-1,5-methano-1H,3H,11H-furo[3.4-g]pyrano[3.2-b]xanthen-1-yl]-,(2Z)-], the “LC50 (50% lethal concentration)” value [1] was 8.4 µg/mL (≈ 12.7 µM).
Molecule `CO[C@@]12[C@H](COC(N)=O)C3=C(C(=O)C(C)=C(N)C3=O)N1C[C@@H]1N[C@@H]12` [Mitomycin, mitomycin, reference compound] has an IC50 ([2]; read-out: IC50 (50% inhibition concentration), MCF-7, positive control) of 150 nM.
